What was measured:
Settings in all cases: incubation time: 72 h
BT-549 = assay: normalised viability (% of control), CellTiter-Blue; higher = more viable cells (about 100 = DMSO control)
Method in brief: (§1)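 Vehicle (100) and a positive kill control (0) anchored the normalisation of each plate, and Z'-factor was used for quality control. Breast cancer cell lines in 20 µl suspension were incubated 72 h over compound in 5 µl medium in 384-well plates, followed by CellTiter-Blue at 560/590 nm. The value is normalised viability at a single listed concentration of the series.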

CAL-120 = assay: as above
Method in brief: as §1

HCC1143 = assay: as above
Method in brief: as §1

HCC1937 = assay: as above
Method in brief: as §1

HDQ-P1 = assay: as above
Method in brief: as §1

MDA-MB-436 = assay: as above
Method in brief: as §1

MDA-MB-453 = assay: drug sensitivity score (DSS), CellTiter-Blue viability (DSS (AUC-based score)); higher = stronger viability inhibition; extreme values may be limits of the assay
Protocol: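 DSRT with the CellTiter-Blue (resazurin reduction) viability readout, fluorescence 560/590 nm, 72 h incubation. Plates were normalised to DMSO and benzethonium chloride controls. DSS is computed from the area under the fitted dose-response curve (5 or 9 concentrations).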

| SMILES | normalised viability (BT-549; 1 nM) | normalised viability (BT-549; 100 nM) | normalised viability (BT-549; 1000 nM) | normalised viability (CAL-120; 1 nM) | normalised viability (CAL-120; 100 nM) | normalised viability (CAL-120; 1000 nM) | normalised viability (HCC1143; 1 nM) | normalised viability (HCC1143; 100 nM) | normalised viability (HCC1143; 1000 nM) | normalised viability (HCC1937; 1 nM) | normalised viability (HCC1937; 100 nM) | normalised viability (HCC1937; 1000 nM) | normalised viability (HDQ-P1; 0.3 nM) | normalised viability (HDQ-P1; 3 nM) | normalised viability (HDQ-P1; 10 nM) | normalised viability (MDA-MB-436; 1 nM) | normalised viability (MDA-MB-436; 100 nM) | normalised viability (MDA-MB-436; 1000 nM) | drug sensitivity score (MDA-MB-453) | normalised viability (BT-549; 10 nM) | normalised viability (BT-549; 10000 nM) | normalised viability (CAL-120; 10 nM) | normalised viability (CAL-120; 10000 nM) | normalised viability (HCC1143; 10 nM) | normalised viability (HCC1143; 10000 nM) | normalised viability (HCC1937; 10 nM) | normalised viability (HCC1937; 10000 nM) | normalised viability (HDQ-P1; 30 nM) | normalised viability (HDQ-P1; 100 nM) | normalised viability (MDA-MB-436; 10 nM) | normalised viability (MDA-MB-436; 10000 nM) |
| --- | --- | --- | --- | --- | --- | --- | --- | --- | --- | --- | --- | --- | --- | --- | --- | --- | --- | --- | --- | --- | --- | --- | --- | --- | --- | --- | --- | --- | --- | --- | --- |
| Cc1ccc(C(=O)N(CCCN)[C@@H](c2oc3cc(Cl)ccc3c(=O)c2Cc2ccccc2)C(C)C)cc1 | 87.3% | 25.1% | 34.8% | 53% | 27.8% | 26.7% | 83.7% | 43.2% | 37.5% | 51.2% | 26.6% | 22.3% | 128% | 75.8% | 59.1% | 97.8% | 60.6% | 59.2% | 21.5 | – | – | – | – | – | – | – | – | – | – | – | – |
| NC(=O)Nc1cc(-c2cccc(F)c2)sc1C(=O)N[C@H]1CCCNC1 [AZD 7762] | 114% | 118% | 35.5% | 118% | 101% | 26.5% | 120% | 109% | 34.8% | 104% | 108% | 27.9% | 108% | 114% | 115% | 99% | 83.7% | 18.5% | 5.94 | – | – | – | – | – | – | – | – | – | – | – | – |
| CO[C@H]1/C=C\C=C(/C)C(=O)NC2=CC(=O)C(NCCN(C)C)=C(C[C@@H](C)C[C@H](OC)[C@H](O)[C@@H](C)/C=C(\C)[C@@H]1OC(N)=O)C2=O [Alvespimycin] | 104% | 33.5% | 21.2% | 108% | 26.7% | 17.4% | 103% | 46.8% | 37.7% | 110% | 40.7% | 29% | 99.3% | 102% | 112% | 90.9% | 28.9% | 20.4% | 22.6 | – | – | – | – | – | – | – | – | – | – | – | – |
| CCC1(c2ccc(N)cc2)CCC(=O)NC1=O (stereo not drawn) [Aminoglutethimide] | – | – | 101% | – | – | 116% | – | – | 115% | – | – | 92.9% | – | 84.8% | – | – | – | 112% | 0 | 84.2% | 76.4% | 111% | 108% | 124% | 122% | 93.3% | 83.4% | 99.2% | 103% | 95.9% | 91.6% |
| NCC(=O)CCC(=O)O [Aminolevulinic acid] | – | – | 84.1% | – | – | 103% | – | – | 82.6% | – | – | 84.2% | – | 95.2% | – | – | – | 102% | 0 | 85.6% | 90% | 89.6% | 104% | 81.1% | 85.2% | 86.8% | 86.4% | 105% | 110% | 99.1% | 96.5% |
| CCN(CCCOc1ccc2c(Nc3cc(CC(=O)Nc4cccc(F)c4)[nH]n3)ncnc2c1)CCOP(=O)(O)O [Barasertib] | 93.5% | 69.1% | 69.8% | 111% | 61.9% | 51.7% | 124% | 78.4% | 85.9% | 69% | 44.3% | 52.8% | 103% | 106% | 109% | 126% | 56.5% | 88.1% | 11.8 | – | – | – | – | – | – | – | – | – | – | – | – |
| Cn1c(CCCC(=O)O)nc2cc(N(CCCl)CCCl)ccc21 [Bendamustine] | – | – | 101% | – | – | 86.7% | – | – | 104% | – | – | 85.7% | – | 105% | – | – | – | 70.4% | 0 | 107% | 101% | 89.5% | 93.4% | 107% | 97.8% | 55.3% | 93.7% | 119% | 109% | 94.7% | 116% |
| C=C(c1ccc(C(=O)O)cc1)c1cc2c(cc1C)C(C)(C)CCC2(C)C [Bexarotene] | – | – | 75.6% | – | – | 108% | – | – | 117% | – | – | 82.2% | – | 89.3% | – | – | – | 97.2% | 0 | 89.5% | 74.5% | 101% | 106% | 123% | 104% | 82.3% | 82.1% | 84.9% | 102% | 90.1% | 81% |
| CC(=O)Nc1ccc(C(=O)Nc2ccccc2N)cc1 [CI-994] | 116% | 97% | 112% | 99.9% | 106% | 88.9% | 113% | 118% | 101% | 86.9% | 101% | 89.9% | 113% | 125% | 108% | 98.7% | 97.2% | 94.8% | 0 | – | – | – | – | – | – | – | – | – | – | – | – |
| COc1cc2nccc(Oc3ccc(NC(=O)C4(C(=O)Nc5ccc(F)cc5)CC4)cc3)c2cc1OC [Cabozantinib] | 96.3% | 108% | 101% | 85.5% | 77.8% | 86.5% | 78.9% | 87.9% | 85.5% | 98% | 87.5% | 100% | 97.7% | 93.7% | 112% | 110% | 102% | 97.3% | 1.25 | – | – | – | – | – | – | – | – | – | – | – | – |
| N.N.[Cl][Pt][Cl] [Cisplatin] | – | – | 87.6% | – | – | 93.3% | – | – | 89.3% | – | – | 106% | – | 116% | – | – | – | 87.1% | 0 | 87.5% | 88.8% | 90.3% | 102% | 88.2% | 89.2% | 87% | 105% | 118% | 111% | 102% | 94.8% |
| C[C@@H](Oc1cc(-c2cnn(C3CCNCC3)c2)cnc1N)c1c(Cl)ccc(F)c1Cl [Crizotinib] | – | – | 107% | – | – | 83.4% | – | – | 96.1% | – | – | 89.2% | – | 88.4% | – | – | – | 17.1% | 8.6 | 107% | 30.1% | 90.3% | 9.87% | 87.8% | 42.5% | 38.1% | 7.72% | 91.3% | 88.6% | 71.3% | 8.24% |

From the supplement of paper PMC4862054
